Measured values: US4451472A, “Inhibition of thromboxane synthetase with 3-(heteroalkyl)-indolyl-acrylic acid derivatives” (Pfizer Inc., priority 1981, dated 1984)
Read-outs that look alike come from different tables or passages of the source.

System: thromboxane B2 (TxB2) formation
Assay: TxB2 generation in clotted whole blood of anaesthetized rabbits after intravenous dosing (method of Patrono et al., RIA)
Type: in vivo, New Zealand white rabbits
Conditions: Oryctolagus cuniculus, read-out: Percent Inhibition (%) of TxB2 formation; for inhibition at 1 mg/kg: 1.0 mg/kg i.v.; for inhibition at 0.3 mg/kg: 0.3 mg/kg i.v.; for inhibition at 0.1 mg/kg: 0.1 mg/kg i.v.
Description: A number of in vivo tests in animals have also been described for evaluating potential anti-thrombotic drugs. For instance, the method of Patrono et al. is adapted to study the generation of TxB2 in whole blood samples removed from animals prior to and following drug treatment. Briefly, blood samples are taken into glass tubes and allowed to clot at 37° C. Serum is then separated by centrifugation and the samples stored at -40° C. until assayed for TxB2, when appropriate dilutions of ethanol deproteinized samples are thereafter analyzed by RIA. This technique is used in experiments with the test compounds to determine intravenous potency in anesthetized rabbits.
In this study, male New Zealand white rabbits (2.6-5.6 kg.) are anesthetized with sodium pentobarbitone (30 mg./kg., i.v.), followed by urethane (500 mg./kg., i.p.). After cannulation of the trachea, a carotid artery is catheterized for collection of the blood samples. The catheter is kept patent by slow infusion (0.2 ml./minutes) of sterile saline. Control carotid arterial blood samples are then taken at 30 minutes and at 5 minutes prior to administration of the test compound or vehicle (0.9% w./v. NaCl, 0.2 ml./kg.) via a marginal ear vein. Three groups of rabbits are employed in the test. The first group is given the test compound at 0.03 mg./kg., followed one hour later by a second dose at 0.1 mg./kg. Similarly, the second group is administered the test compound at 0.3 mg./kg., followed by a second dose (one hour later) at 1.0 mg./kg. The third group is treated with the vehicle alone, followed one hour later by a further vehicle injection. Carotid arterial blood samples are then taken at various time intervals after all doses. At each time point, a 1.0 ml. blood sample is taken into a glass tube, without anticoagulant, for TxB2 determination. For the latter determination, the blood sample is allowed to clot during a two-hour incubation period at 37° C. (which preliminary experiments had already shown to give a maximum TxB2 production) and the resulting serum obtained by centrifugation. The serum samples are then processed through the TxB2 -RIA after deproteinization with ethanol and dilution with Isogel Tris buffer.

Structure (SMILES)	inhibition at 1 mg/kg (2 min, 2 min)	inhibition at 0.3 mg/kg (0.25 h, 15 min)	inhibition at 1 mg/kg (0.25 h, 15 min)	inhibition at 0.3 mg/kg (0.5 h, 30 min)	inhibition at 1 mg/kg (0.75 h, 45 min)	inhibition at 1 mg/kg (1.25 h, 75 min)	inhibition at 0.3 mg/kg (2 min, 2 min)	inhibition at 0.1 mg/kg (0.25 h, 15 min)	inhibition at 0.1 mg/kg (0.5 h, 30 min)	inhibition at 0.3 mg/kg (0.75 h, 45 min)	inhibition at 0.3 mg/kg (1.25 h, 75 min)
Cc1c(Cn2ccnc2)c2ccccc2n1/C=C/C(=O)O [Ex. 1, E-3-{1-[2-methyl-3-(1-imidazolyl-methyl)]indolyl}-acrylic acid]	93%	93%	96%	93%	95%	95%	–	–	–	–	–
Cc1c(Cc2cccnc2)c2ccccc2n1/C=C/C(=O)O [Ex. 2, E-3-{1-[2-methyl-3-(3-pyridylmethyl)]indolyl}-acrylic acid]	97%	98%	94%	–	97%	95%	95%	81%	82%	93%	90%
